Source: US20020010157A1, “Composition and method for controlling insect pests and diseases on plants” (priority 2000, published 2002)

What was measured:
Aphids [1] = assay: Controlled environment, 2% glyceride emulsion: aphid survival on apple; assay type: in vivo; conditions: ‘Delicious’ apple
Experimental: (§1) Plant materials used for tests were either branches obtained from the fields or trees grew in pots in a green house.
(§2) Plants growing in pot were inoculated with pests or pathogen and sprayed with 2% glyceride emulsions. Death rate of pests or number of lesions was evaluated one to three weeks after treatment.
(§3) Since mineral oil has been widely used for insect pest and disease control in agriculture (Taschenberg, 1952; Walsh et al., 2000), it was included in the experiments for comparison.

Mites [2] = assay: Controlled environment, 2% glyceride emulsion: mite survival on apple; assay type: in vivo, European red mite (ERM); conditions: ‘Delicious’ apple
Source text: as §1
(§4) To test the effects of different glycerides on over winter pests such as San Jose Scale (SJS) or European red mite (ERM) on pome or stone fruit trees, stems from dormant ‘Delicious’ apple trees and ‘Feng Huang’ peach trees infested with SJS were collected and dipped in 2% of different glyceride emulsions with the untreated served as control. Stems were then trimmed to 25 cm long by removing from the base, put in a plate with the base submerging in 1-cm thick water, and incubated at 23 degree C for 2 weeks in a chamber. After incubation, 15 overwintering SJS (‘Black-cap’ stage of first instar) per stem were examined microscopically and assessed for viability. Apple or peach stems containing ERM eggs were collected in late dormant and treated as described above and incubated at 28 degree C., 80% relative humidity, and 16-hour light/8-hour dark cycle. Mite viability was evaluated by the following method. Stem segment were impaled onto insect pins that had been driven through 10×12 cm white posterboard containing a thin coat of sticky gel to trip newly hatched mites and facilitate their counting. Eggs were examined every 2 days until hatch was complete. […]

Psylla = assay: Controlled environment, 2% glyceride emulsion: psylla survival on apple; assay type: in vivo; conditions: ‘Delicious’ apple
Experimental: as §1, §2, §3

Whitefly [3] = assay: Controlled environment, 2% glyceride emulsion: whitefly survival on apple; assay type: in vivo; conditions: ‘Delicious’ apple
Experimental: as §1, §2, §3

SJS = assay: Controlled environment, 2% glyceride emulsion: SJS survival on apple; assay type: in vivo, San Jose Scale (SJS); conditions: ‘Delicious’ apple
Source text: as §1, §4

Aphids [4] = assay: Controlled environment, 2% glyceride emulsion: aphid survival on orange; assay type: in vivo; conditions: ‘Qi Cheng’ orange
Experimental: as §1, §2, §3

Mite = assay: Controlled environment, 2% glyceride emulsion: mite survival on orange; assay type: in vivo; conditions: ‘Qi Cheng’ orange
Experimental: as §1, §2, §3

Aphids [5] = assay: Controlled environment, 2% glyceride emulsion: aphid survival on cotton; assay type: in vivo
Experimental: as §1, §2, §3

Whitefly [6] = assay: Controlled environment, 2% glyceride emulsion: whitefly survival on cotton; assay type: in vivo
Experimental: as §1, §2, §3

Aphids [7] = assay: Controlled environment, 2% glyceride emulsion: aphid survival on wheat; assay type: in vivo
Experimental: as §1, §2, §3

Mites [8] = assay: Controlled environment, 2% glyceride emulsion: mite survival on wheat; assay type: in vivo
Experimental: as §1, §2, §3

Aphids [9] = assay: Controlled environment, 2% glyceride emulsion: aphid survival on tomato; assay type: in vivo
Experimental: as §1, §2, §3

Mites [10] = assay: Controlled environment, 2% glyceride emulsion: mite survival on tomato; assay type: in vivo
Experimental: as §1, §2, §3

Aphids [11] = assay: Controlled environment, 2% glyceride emulsion: aphid survival on cabbage; assay type: in vivo
Experimental: as §1, §2, §3

Whitefly [12] = assay: Controlled environment, 2% glyceride emulsion: whitefly survival on cabbage; assay type: in vivo
Experimental: as §1, §2, §3

Scab = assay: Controlled environment, 2% glyceride: scab severity on apple; assay type: in vivo; conditions: ‘Delicious’ apple
Experimental: as §1, §2, §3

Powdery mildew [13] = assay: Controlled environment, 2% glyceride: powdery mildew severity on apple; assay type: in vivo; conditions: ‘Delicious’ apple
Experimental: as §1, §2, §3

Bacterial canker = assay: Controlled environment, 2% glyceride: bacterial canker severity on peach; assay type: in vivo; conditions: ‘Feng Hung’ peach
Experimental: as §1, §2, §3

Powdery mildew [14] = assay: Controlled environment, 2% glyceride: powdery mildew severity on peach; assay type: in vivo; conditions: ‘Feng Hung’ peach
Experimental: as §1, §2, §3

Leaf spot = assay: Controlled environment, 2% glyceride: leaf spot severity on grape; assay type: in vivo; conditions: ‘Long Yan’ grape
Experimental: as §1, §2, §3

Powdery mildew [15] = assay: Controlled environment, 2% glyceride: powdery mildew severity on grape; assay type: in vivo; conditions: ‘Long Yan’ grape
Experimental: as §1, §2, §3

Brown rot = assay: Controlled environment, 2% glyceride: brown rot severity on orange; assay type: in vivo; conditions: ‘Qi Cheng’ orange
Experimental: as §1, §2, §3

Psorosis = assay: Controlled environment, 2% glyceride: psorosis severity on orange; assay type: in vivo; conditions: ‘Qi Cheng’ orange
Experimental: as §1, §2, §3

Fusarium wilt [16] = assay: Controlled environment, 2% glyceride emulsion: Fusarium wilt severity on cotton; assay type: in vivo
Experimental: as §1, §2, §3

Verticillium wilt [17] = assay: Controlled environment, 2% glyceride emulsion: Verticillium wilt severity on cotton; assay type: in vivo
Experimental: as §1, §2, §3

Barley strip = assay: Controlled environment, 2% glyceride emulsion: Barley strip severity on wheat; assay type: in vivo
Experimental: as §1, §2, §3

leaf scald = assay: Controlled environment, 2% glyceride emulsion: leaf scald severity on wheat; assay type: in vivo
Experimental: as §1, §2, §3

Leaf-spot = assay: Controlled environment, 2% glyceride emulsion: leaf-spot severity on cabbage; assay type: in vivo
Experimental: as §1, §2, §3

Verticillium wilt [18] = assay: Controlled environment, 2% glyceride emulsion: Verticillium wilt severity on cabbage; assay type: in vivo
Experimental: as §1, §2, §3

Bacterial ring rot = assay: Controlled environment, 2% glyceride emulsion: bacterial ring rot severity on potato; assay type: in vivo
Experimental: as §1, §2, §3

Verticillium wilt [19] = assay: Controlled environment, 2% glyceride emulsion: Verticillium wilt severity on potato; assay type: in vivo
Experimental: as §1, §2, §3

Bacterial Spot = assay: Controlled environment, 2% glyceride emulsion: bacterial spot severity in tomatoes; assay type: in vivo
Experimental: as §1, §2, §3

Verticillium wilt [20] = assay: Controlled environment, 2% glyceride emulsion: Verticillium wilt severity in tomatoes; assay type: in vivo
Experimental: as §1, §2, §3

Fusarium wilt [21] = assay: Controlled environment, 2% glyceride emulsion: Fusarium wilt severity in tomatoes; assay type: in vivo
Experimental: as §1, §2, §3

TMV (I) = assay: Controlled environment, 2% glyceride emulsion: TMV (I) severity in tomatoes; assay type: in vivo, tobacco mosaic virus (TMV I)
Experimental: as §1, §2, §3

TMV (II) = assay: Controlled environment, 2% glyceride emulsion: TMV (II) severity in tomatoes; assay type: in vivo, tomato mosaic virus (TMV II)
Experimental: as §1, §2, §3

TICV = assay: Controlled environment, 2% glyceride emulsion: TICV severity in tomatoes; assay type: in vivo, tomato infectious chlorosis virus (TICV)
Experimental: as §1, §2, §3

TSWV = assay: Controlled environment, 2% glyceride emulsion: TSWV severity in tomatoes; assay type: in vivo, tomato spotted wilt virus (TSWV)
Experimental: as §1, §2, §3

For `CCCCCCCCCCCC(=O)OCC(O)CO` (centres unmarked) [Monolaurin], the “pest survival (%), Apples, Aphids” value (Aphids [1]) was 34e %, the “pest survival (%), Apples, Mites” value (Mites [2]) was 0g % and the “pest survival (%), Apples, Psylla” value (Psylla) was 35e %. The “pest survival (%), Apples, Whitefly” value (Whitefly [3]) was 31e %, the “pest survival (%), Apples, SJS” value (SJS) was 0f % and the “pest survival (%), Oranges, Aphids” value (Aphids [4]) was 31e %. For the same compound, the “pest survival (%), Oranges, Mite” value (Mite) was 39e %, the “pest survival (%), Cotton, Aphids” value (Aphids [5]) was 30e % and the “pest survival (%), Cotton, Whitefly” value (Whitefly [6]) was 31f %. The “pest survival (%), Wheat, Aphids” value (Aphids [7]) was 21e %, the “pest survival (%), Wheat, Mites” value (Mites [8]) was 33e % and the “pest survival (%), Tomato, Aphids” value (Aphids [9]) was 27e %. The “pest survival (%), Tomato, Mites” value (Mites [10]) was 34e %, the “pest survival (%), Cabbage, Aphids” value (Aphids [11]) was 17e % and the “pest survival (%), Cabbage, Whitefly” value (Whitefly [12]) was 28f %. The “disease severity, Apples, Scab” value (Scab) was 14f^z % of untreated control, the “disease severity, Apples, Powdery mildew” value (Powdery mildew [13]) was 18f % of untreated control and the “disease severity, Peaches, Bacterial canker” value (Bacterial canker) was 24f % of untreated control. For the same compound, the “disease severity, Peaches, Powdery mildew” value (Powdery mildew [14]) was 13g % of untreated control, the “disease severity, Grapes, Leaf spot” value (Leaf spot) was 37f % of untreated control and the “disease severity, Grapes, Powdery mildew” value (Powdery mildew [15]) was 16g % of untreated control. For the same compound, the “disease severity, Oranges, Brown rot” value (Brown rot) was 34e % of untreated control, the “disease severity, Oranges, Psorosis” value (Psorosis) was 32d % of untreated control and the “disease severity, Cotton, Fusarium wilt” value (Fusarium wilt [16]) was 43e^z % of untreated control. For the same compound, the “disease severity, Cotton, Verticillium wilt” value (Verticillium wilt [17]) was 48d % of untreated control, the “disease severity, Wheat, Barley strip” value (Barley strip) was 19f % of untreated control and the “disease severity, Wheat, leaf scald” value (leaf scald) was 32f % of untreated control. The “disease severity, Cabbage, Leaf-spot” value (Leaf-spot) was 23f % of untreated control, the “disease severity, Cabbage, Verticillium wilt” value (Verticillium wilt [18]) was 46de % of untreated control and the “disease severity, Potato, Bacterial ring rot” value (Bacterial ring rot) was 47e % of untreated control. The “disease severity, Potato, Verticillium wilt” value (Verticillium wilt [19]) was 37e % of untreated control, the “disease severity, Bacterial Spot” value (Bacterial Spot) was 18f^z % of untreated control and the “disease severity, Verticillium wilt” value (Verticillium wilt [20]) was 26f % of untreated control. The “disease severity, Fusarium wilt” value (Fusarium wilt [21]) was 29f % of untreated control, the “disease severity, TMV (I)” value (TMV (I)) was 37e % of untreated control and the “disease severity, TMV (II)” value (TMV (II)) was 43d % of untreated control. For the same compound, the “disease severity, TICV” value (TICV) was 33f % of untreated control and the “disease severity, TSWV” value (TSWV) was 27e % of untreated control.
